Measured values reported in US5928185A, “Iontophoresis device for the transcutaneous delivery of an active principle such as an anionic oligosaccharide” (Sanofi, priority 1995, dated 1999).

Legend:
[1] = Transdermic passage of sodium pentasaccharide salt by iontophoresis at set intensity through nude rat skin (Example 2); format: in vitro ADME
Description: The procedure as described in Example 1 was carried out, but with the following modifications:
implementation of the iontophoresis by setting a constant intensity through each cell
use of a continuous current instead of a pulsed current
the absence of buffer in the donor and back-electrode compartments in test 2d, because these compartments are equipped with electrodes of the Ag/AgCl type, which avoid hydrolysis of water.
[…], over a period of 6 hours, using a generator making it possible to set a constant intensity irrespective of the voltages generated across the terminals of each cell.

[2] = Administration of pentasaccharide sodium salt to minipigs by iontophoresis with periodic current reversal; plasma levels (Example 4); format: in vivo, minipig
Description: Administration to minipigs of the sodium salt of a pentasaccharide by iontophoresis with set current density with periodic reversal of the current direction.
The following iontophoretic administration tests were carried out on 4 minipigs by using the same current generator and the same type of electrodes as in Example 3, and by applying the following conditions:
The electrodes themselves consisted of 15 μm thick silver films chlorided by electrolytic oxidation in a ratio of 0.5 mAh of silver chloride per cm^2. The reservoirs, also measuring 20 cm^2, consisted of a sheet of blotting paper made of cellulose fibres supplemented with polypropylene fibrils, impregnated to a level of 50 mg/cm^2 with an aqueous solution containing 2% by weight of pentasaccharide and 0.2% by weight of NaCl. Each electrode, the anode and the cathode, contained in all 1 g of solution, i.e. 20 mg of pentasaccharide (1 mg/cm^2) for an active surface area of 20 cm^2. 40 mg of pentasaccharide were therefore engaged in all per animal.
The current generator delivered a constant intensity of 2.5 mA, i.e. 125 μA/cm^2 of direct current with regular reversals of the current direction every 30 minutes for a total time of 8 hours, corresponding to the passage of […] of direct current.
Each of the electrodes, having identical structure and composition, was therefore operated alternately as the cathode and then as the anode, the presence of sodium chloride in each of the reservoirs ensuring their permanent operation as a reversible electrode, thus avoiding any parasitic reaction of hydrolysis (with a change in the pH) or oxidation/reduction of the active principle.
In test 4a, involving 3 animals with an average weight of 11.8 kg, the electrodes were put in place but not connected to the current generator, whereas for all the tests 4b, which concerned 4 animals with an average weight of 12.3 kg, the current of 2.5 mA was applied for 8 hours with automated reversal of the current direction every half hour.
In tests 4a and 4b, a number of blood samples were taken periodically up to 30 hours after the start of each experiment, as in Example 3.
The plasma levels of the various samples are indicated in Table IV for the purpose of comparing tests 4a and 4b with one another and with the results of the tests carried out in Example 3, in particular tests 3c and 3d which correspond to intravenous and subcutaneous injections.

factor Xa = assay: Antifactor Xa activity of the pentasaccharide sodium salt; format: biochemical
Description: The assay of the pentasaccharide in the receiver compartment was based on investigating its antifactor Xa activity. The assay was carried out either directly on the medium sampled from the receiver compartment or after dilution, using a ROTACHROM HEPARIN 8® assay kit, a complementary buffer for the assay instrument and bovine antithrombin III, these various elements being supplied by the company STAGO, using a HITACHI 717 assay instrument. The calibration curve was established using a "Golden Standard" pentasaccharide solution to which an antifactor Xa activity equal to 13 units per ml was assigned.

[3] = test 2a: titanium, 0 mA/cm^2 (passive)
[4] = test 4b: iontophoresis 0.125 mA/cm^2, 8 hours, reversal every 30 minutes

Compound: O=C(O)C1OC(OC2C(COS(=O)(=O)O)OC(OC3C(C(=O)O)OC(OC4C(COS(=O)(=O)O)OC(O)C(NS(=O)(=O)O)C4O)C(OS(=O)(=O)O)C3O)C(NS(=O)(=O)O)C2OS(=O)(=O)O)C(O)C(O)C1OC1OC(COS(=O)(=O)O)C(O)C(O)C1NS(=O)(=O)O (centres unmarked) [pentasaccharide]
- Fraction of active principle used (%) ([1]; at 6 hours, test 2a: titanium, 0 mA/cm^2 (passive)): ~ zero
- Fraction of active principle used (%) ([1]; at 6 hours, test 2b: graphite, 0.2 mA/cm^2): 0.09%
- Fraction of active principle used (%) ([1]; at 6 hours, test 2c: titanium, 0.2 mA/cm^2): 0.49%
- Fraction of active principle used (%) ([1]; at 6 hours, test 2d: Ag/AgCl, 0.2 mA/cm^2): 2.8%
- Fraction of active principle used (%) ([1]; at 24 hours, test 2a: titanium, 0 mA/cm^2 (passive)): 0.09%
- Fraction of active principle used (%) ([1]; at 24 hours, test 2b: graphite, 0.2 mA/cm^2): 0.9%
- Fraction of active principle used (%) ([1]; at 24 hours, test 2c: titanium, 0.2 mA/cm^2): 0.75%
- Fraction of active principle used (%) ([1]; at 24 hours, test 2d: Ag/AgCl, 0.2 mA/cm^2): 3.7%
- Antifactor activity Xa/ml at 6 hours [1, 3]: 0.12 units per ml
- Antifactor activity Xa/ml at 24 hours [1, 3]: 0.6 units per ml
- total diffused quantity ([1]; test 2a: titanium, passive): 4.64 μg per cm^2
- Antifactor activity Xa/ml at 6 hours ([1]; test 2b: graphite, 0.2 mA/cm^2): 6 units per ml
- total diffused quantity ([1]; test 2b: graphite, 0.2 mA/cm^2): 45 μg per cm^2
- Antifactor activity Xa/ml at 24 hours ([1]; test 2b: graphite, 0.2 mA/cm^2, 18 hours after current stopped): 5.8 units per ml
- Antifactor activity Xa/ml at 6 hours ([1]; test 2c: titanium, 0.2 mA/cm^2): 3.2 units per ml
- total diffused quantity ([1]; test 2c: titanium, 0.2 mA/cm^2): 38 μg per cm^2
- Antifactor activity Xa/ml at 24 hours ([1]; test 2c: titanium, 0.2 mA/cm^2, 18 hours after current stopped): 4.9 units per ml
- total diffused quantity per mAh ([1]; test 2d: Ag/AgCl electrodes): 154 μg/cm^2 per mAh
- total diffused quantity ([1]; test 2d: Ag/AgCl, 0.2 mA/cm^2): 185 μg per cm^2
- Antifactor activity Xa/ml at 6 hours ([1]; test 2d: Ag/AgCl, 0.2 mA/cm^2, no buffer): 18.1 units per ml
- Antifactor activity Xa/ml at 24 hours ([1]; test 2d: Ag/AgCl, 0.2 mA/cm^2, 18 hours after current stopped): 24 units per ml
- bioavailability ([2]; minipig, plasma, topical, test 4b, 40 mg engaged): ~21%
- average quantity of pentasaccharide administered during the treatment ([2]; passive test 4a): zero
- Initial plasma level ([2]; test 4a: passive, 0 mA/cm^2): 0 anti-Xa U/mL
- Plasma level at 30 minutes ([2]; test 4a: passive, 0 mA/cm^2): 0
- Plasma level at 1 hour ([2]; test 4a: passive, 0 mA/cm^2): 0
- Plasma level at 2 hours ([2]; test 4a: passive, 0 mA/cm^2): 0
- Plasma level at 4 hours ([2]; test 4a: passive, 0 mA/cm^2): 0
- Plasma level at 6 hours ([2]; test 4a: passive, 0 mA/cm^2): 0
- Plasma level at 8 hours ([2]; test 4a: passive, 0 mA/cm^2): 0
- Plasma level at 10 hours ([2]; test 4a: passive, 0 mA/cm^2): 0
- Plasma level at 12 hours ([2]; test 4a: passive, 0 mA/cm^2): 0
- Plasma level at 16 hours ([2]; test 4a: passive, 0 mA/cm^2): 0
- Plasma level at 26 hours ([2]; test 4a: passive, 0 mA/cm^2): 0
- Plasma level at 30 hours ([2]; test 4a: passive, 0 mA/cm^2): 0
- quantity of pentasaccharide administered per mAh ([2]; test 4b): 372 μg/cm^2
- Initial plasma level [2, 4]: 0 anti-Xa U/mL
- Plasma level at 30 minutes [2, 4]: 0.11 ± 0.05
- Plasma level at 1 hour [2, 4]: 0.16 ± 0.05
- Plasma level at 2 hours [2, 4]: 0.28 ± 0.1
- Plasma level at 4 hours [2, 4]: 0.64 ± 0.2
- Plasma level at 6 hours [2, 4]: 0.57 ± 0.18
- Plasma level at 8 hours [2, 4]: 0.59 ± 0.15
- Plasma level at 10 hours [2, 4]: 0.61 ± 0.16
- Plasma level at 12 hours [2, 4]: 0.58 ± 0.05
- Plasma level at 16 hours [2, 4]: 0.2 ± 0.05
- Plasma level at 26 hours [2, 4]: 0.14 ± 0.02
- Plasma level at 30 hours [2, 4]: 0.05 ± 0.02
- average quantity of pentasaccharide administered during the treatment ([2]; test 4b, from area under the curve): 8.45 ± 1.5 mg
- antifactor Xa activity (factor Xa): 0.65 "Golden Standard" units per microgram
